From article PMC5571359, “Screening the Medicines for Malaria Venture Pathogen Box across Multiple Pathogens Reclassifies Starting Points for Open-Source Drug Discovery” (Antimicrobial Agents and Chemotherapy, 2017)
Where two headings read alike, the source gives them in different places.

Assays:
[1] = test system: T. cruzi C4 β-galactosidase reporter parasite in MRC 5SV2 host cells; conditions: ref Pbox supporting information; read-out: T. cruzi Pbox IC50; cited from earlier work
T. brucei brucei = conditions: ref Pbox supporting information; read-out: T.b. brucei Pbox IC50; cited from earlier work
T. brucei rhodesiense = conditions: ref Pbox supporting information; read-out: T .b. rohdensie Pbox IC50; cited from earlier work
[2] = test system: L. infanium (macrophages); set-up: method as in Pbox supporting information; conditions: ref Pbox supporting information; cited from earlier work
[3] = test system: T. b. brucei 427 bloodstream trypanosomes; experiment: T. b. brucei resazurin viability assay; type: cell-based, Trypanosoma brucei brucei; conditions: Trypanosoma brucei; read-out: T b.brucei Discovery Biology IC50
HEK293 cells = experiment: HEK293 resazurin cell cytotoxicity assay; conditions: Homo sapiens
HepG2 = conditions: cited from earlier work
P. falciparum ABS = conditions: cited from earlier work; for EC50: ChEMBL Data; for IC50: read-out: Pf 3D7 Pbox IC50
liver stage = conditions: cited from earlier work
[4] = ref PBox supporting information
[5] = NITD, read-out: NITD (ref 94) EC50
[6] = TCMDC, read-out: TCMDC (ref 93) EX50
[7] = Pf 3D7, ref Pathogen Box supporting information
[8] = liver stage, ref Pathogen Box supporting information, read-out: LIVER STAGE Pbox IC50
[9] = read-out: HepG2 PBox CC50 µM, HepG2 CC50, ref Pathogen Box supporting information
[10] = P. falciparum 3D7, ref PBox supporting information
[11] = ref Pbox supporting information
[12] = read-out: HepG2 PBox CC50 µM, ref PBox supporting information

| Compound | EC50 (P. falciparum ABS; [6]) | IC50 (P. falciparum ABS; [7]) | IC50 (liver stage; [8]) | CC50 (HepG2; [9]) | further results |
| --- | --- | --- | --- | --- | --- |
| CCOC(=O)c1noc(N)c1-c1ccccc1 [MMV1236379] | – | – | – | – | IC50 [1]: > 64000 nM; IC50 (T. brucei brucei): 1220 nM; IC50 (T. brucei rhodesiense): 460 nM; IC50 [2]: > 64000 nM |
| COc1ccc(C2=NN(C3CCCCCC3)C(=O)C2(C)C)cc1OCCCCOc1ccc(-c2nn[nH]n2)cc1 [MMV690028] | – | – | – | – | IC50 [3]: 2250 nM; IC50 (T. brucei brucei): 790 nM; IC50 (HEK293 cells; HEK293, read-out: HEK % Inhibition 20uM/IC50 Discovery Biology): > 20000 nM |
| COc1cc(C2=NCCN2)ccc1-c1cn(-c2cccc(C3=NCCN3)c2)nn1 [MMV688407] | – | – | – | – | IC50 [1]: 25000 nM; IC50 (T. brucei brucei): > 32000 nM; IC50 (T. brucei rhodesiense): 3720 nM; IC50 [2]: > 32000 nM; HepG2 PBox CC20 (HepG2; [4]): 22900 nM |
| CCOc1ccc(-c2nc(NC(=O)CS(=O)(=O)c3ccccc3)sc2C)cc1 [MMV007638] | 510 nM | 660 nM | > 10000 nM | > 10 µM | EC50 (P. falciparum ABS; [5]): 530 nM |
| CC1=Nc2ccc(Cl)cc2C(c2ccccc2)N1CCNC(=O)CN(C)C (stereo not drawn) [MMV688410] | – | – | – | – | IC50 [1]: 17100 nM; IC50 (T. brucei brucei): 3780 nM; IC50 (T. brucei rhodesiense): 3110 nM; IC50 [2]: 10100 nM; HepG2 PBox CC20 (HepG2; [4]): 16400 nM |
| CC(C)C(NC(=O)Cc1cccc2ccccc12)C(=O)Nc1cccc(C#N)c1 (stereo not drawn) [MMV020591] | 660 nM | 960 nM | 9150 nM | > 10 µM | – |
| Clc1cccc(C(c2ccc(CN3CCNCC3)cc2)n2ccnc2)c1 (stereo not drawn) [MMV663250] | – | – | – | – | IC50 (P. falciparum ABS; [10]): 1630 nM; IC50 (liver stage; [11]): > 10000 nM; CC50 (HepG2; [12]): > 10 µM; IC50 (HEK293 cells; HEK293, read-out: HEK % Inhibition 20uM/IC50 Discovery Biology (IA)): > 20000 nM |
| O=C1N(Cc2cc3ccccc3s2)CC2CN(Cc3ccccc3)CCN12 (stereo not drawn) [MMV084603] | – | – | – | – | EC50 (P. falciparum ABS; P. falciparum, read-out: NITD (ref 94) EC50): 440 nM; IC50 (P. falciparum ABS; [10]): 1160 nM; IC50 (liver stage; [11]): 200 nM; CC50 (HepG2; [12]): > 10 µM |
| CC1CC1C(=O)NC1CCN(CC2(c3ccccc3)CCCCC2)CC1 (stereo not drawn) [MMV020120] | 640 nM | 580 nM | 2250 nM | > 10 µM | – |
| CN1CCCN(C(c2ccccc2)c2ccc(Cl)cc2)CC1 (stereo not drawn) [MMV004168] | – | – | – | – | IC50 [1]: 9440 nM; IC50 (T. brucei brucei): 4640 nM; IC50 (T. brucei rhodesiense): 1940 nM; IC50 [2]: 36300 nM |
| NCC(=O)N1CCn2c(nc(-c3ccccc3)c2Nc2ccc3c(c2)OCO3)C1 [MMV011691] | – | 640 nM | 3780 nM | – | EC50 (P. falciparum ABS; [5]): 160 nM; CC50 (HepG2): > 10 µM |
| O=C(NC1CCN(c2ccnc3ccccc23)C1)c1cccc(C(F)(F)F)c1 (stereo not drawn) [MMV023388] | 900 nM | 710 nM | 6540 nM | > 10 µM | – |
| Cc1ccc(Oc2ccc(NC(=O)CNc3ccccc3N3CCCC3=O)cc2)cc1 [MMV020512] | 370 nM | 480 nM | 9100 nM | 9.8 µM | – |
| O=C(Nc1cccc(Cl)c1)c1cnc(N2CCN(c3ccncc3)CC2)c(Cl)c1 [MMV024406] | 960 nM | 830 nM | 2350 nM | > 10 µM | – |
| O=C(NC1CC1)c1ccc(N2CCOc3ccc(Cl)cc32)s1 [MMV020537] | 800 nM | 1030 nM | 3480 nM | > 10 µM | – |
| Cc1cnc(CCNC(=O)c2cc(-c3ccc(Cl)cc3)cs2)[nH]1 [MMV676350] | – | – | – | – | EC50 (P. falciparum ABS; P. falciparum, read-out: TCMDC (ref 93) EX50): 240 nM; IC50 (P. falciparum ABS; [10]): 810 nM; IC50 (liver stage; [11]): 8580 nM; CC50 (HepG2; [12]): > 10 µM |
| Cc1cc(C(=O)Nc2ccc(-c3ccccc3)cc2)no1 [MMV020152] | 690 nM | 820 nM | > 10000 nM | > 10 µM | – |
| Cc1ccc(S(=O)(=O)N2CCN(C(=O)c3cc(-c4ccccc4)n[nH]3)CC2)cc1 [MMV019742] | 600 nM | 1040 nM | 630 nM | > 10 µM | – |
| Cc1nc(-c2cccc(NCc3ccccc3)c2)[nH]c1C [MMV023227] | 860 nM | 1940 nM | 4590 nM | > 10 µM | – |
